Measurements published in US20020192736A1, “Assay of peroxidase activity” (Pierce Chemical Company, priority 2001, published 2002).
Values joined by “and” are separate entries in the source; they are usually repeats but may differ in a detail not shown here. Identical values can stand only once. Like-named read-outs stand apart in the source and are kept apart here. Each block holds one compound with its values, some of them ahead of it.

How the values were obtained:
[1] = target: horseradish peroxidase labeled streptavidin (SA-HRP) (Armoracia rusticana, UniProt P00433); assay: Dot blot assay on nitrocellulose membrane, film densitometry (relative intensity); format: biochemical
[2] = target: T1, B-HRP (Armoracia rusticana, UniProt P00433); assay: Dot blot assay with B-HRP, film densitometry; conditions: for Net Relative Intensity at 0.98 pg B-HRP / Net Relative Intensity at 3.9 pg B-HRP / Net Relative Intensity at 62.5 pg B-HRP / Net Relative Intensity at 250 pg B-HRP: […] Azine Enhancer, 5 mM Sodium Luminol
T1 sequence (P00433 31-338): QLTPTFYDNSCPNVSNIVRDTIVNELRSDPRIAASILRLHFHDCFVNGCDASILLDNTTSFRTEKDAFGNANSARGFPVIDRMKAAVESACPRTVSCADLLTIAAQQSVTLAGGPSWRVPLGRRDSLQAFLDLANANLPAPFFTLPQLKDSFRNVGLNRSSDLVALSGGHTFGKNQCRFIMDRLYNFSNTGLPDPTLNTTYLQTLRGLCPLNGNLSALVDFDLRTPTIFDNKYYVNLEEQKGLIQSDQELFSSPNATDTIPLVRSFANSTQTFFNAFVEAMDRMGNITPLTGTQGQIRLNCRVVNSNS

[3] = system: oxidized peroxidase; assay: Poisoning of the chemiluminescent system; format: biochemical; conditions: azine with hydrogen atom bonded to the ring nitrogen
Protocol: The contaminant has been identified as a reducing azine species wherein the azine is capable of donating an electron or otherwise reacting with oxidized peroxidase (or peroxidase equivalent). […] This characterization has been made both by theoretic analysis, chemical analysis to determine the presence of the 10=H species, and by reconstruction experiments wherein the “poisoning azine” was added to highly purified azine compositions in order to quantitate the poisoning effects, and to establish the preferred purity of the azine enhancers. […] Concentrations or absolute amounts of a target analyte, which are one-tenth the minimum detectable by other systems can be detected in preferred systems of the invention. […]
This species is a non-enhancing oxidized species of […]. […] If a thiazine with a hydrogen in the 10-yl position is proven to be a non-poisoning species (by its inability to readily react with oxidized peroxidase at room temperature), its presence in or absence from the solution is inconsequential. […] By describing these compounds as inert or not readily reactive with oxidized peroxidase, the basis for the consideration of these terms is visible effects upon luminescence in a peroxidase system. […]

[4] = 50 μM Azine Enhancer, 1 mM Sodium Luminol
[5] = […] Azine Enhancer, 5 mM Sodium Luminol
[6] = 20 pg SA-HRP, enhancer concentrations as in row ([…] 1c; 52 μM 1c; 52 μM 1b; 13.5 μM 3)
[7] = 30 minute reexposure, working solutions: […] 1c, 52 μM 1c, 52 μM 1b, 13.5 μM 3, 52 μM 1b + 13.5 μM 3

Compound: 2-chloro-10 (3 trimethyl amino propyl)-phenothiazonan bromide [Azine Enhancer 1d]
Net Relative Intensity at 1000 pg SA-HRP [1]: 1,106,656 and 1,538,600
Net Relative Intensity at 0.98 pg B-HRP [2]: 0
Net Relative Intensity at 3.9 pg B-HRP [2]: 0
Net Relative Intensity at 62.5 pg B-HRP [2]: 1.70
Net Relative Intensity at 250 pg B-HRP [2]: 15.63

Compound: CN1c2ccccc2Sc2ccccc21 [Azine Enhancer 1b, N-Methylphenothiazine]
Net Relative Intensity at 10 pg SA-HRP [1]: 0
Net Relative Intensity at 100 pg SA-HRP [1]: 0
Relative Intensity 2 pg SA-HRP [1]: 0
Relative Intensity 5 pg SA-HRP [1]: 0
Relative Intensity 20 pg SA-HRP [1]: 573,864
Relative Intensity 1 minute [1]: 457,800
Relative Intensity 5 minutes [1]: 628,408
Relative Intensity 30 minutes [1]: 573,864
Relative Intensity 1 hours [1]: 502,376
Relative Intensity 24 hours [1]: 0

Compound: O=C(O)CCCN1c2ccccc2Sc2ccccc21 [Azine Enhancer 1e]
Net Relative Intensity at 10 pg SA-HRP [1, 4]: 1,416,056
Net Relative Intensity at 100 pg SA-HRP [1, 4]: 4,351,240
Net Relative Intensity at 1000 pg SA-HRP [1, 4]: 9,599,880
Net Relative Intensity at 10 pg SA-HRP [1, 5]: 432,352
Net Relative Intensity at 100 pg SA-HRP [1, 5]: 3,021,440
Net Relative Intensity at 1000 pg SA-HRP [1, 5]: 8,706,320

Compound: O=S(=O)([O-])CCCCN1c2ccccc2Sc2ccccc21.[Na+] [Azine Enhancer 1f]
Net Relative Intensity at 0.98 pg B-HRP [2]: 12.05
Net Relative Intensity at 3.9 pg B-HRP [2]: 28.77
Net Relative Intensity at 62.5 pg B-HRP [2]: 91.44
Net Relative Intensity at 250 pg B-HRP [2]: 151.53

Compound: CC(CN1c2ccccc2Sc2ccccc21)C[N+](C)(C)C.[Cl-] (stereo not drawn) [Azine Enhancer 1g]
Net Relative Intensity at 0.98 pg B-HRP [2]: 0
Net Relative Intensity at 3.9 pg B-HRP [2]: 0
Net Relative Intensity at 62.5 pg B-HRP [2]: 2.16
Net Relative Intensity at 250 pg B-HRP [2]: 17.92

Compound: O=S(=O)([O-])CCCCN1c2ccccc2Sc2ccc(Cl)cc21.[Na+] [Azine Enhancer 1h]
Net Relative Intensity at 0.98 pg B-HRP [2]: 0.20
Net Relative Intensity at 3.9 pg B-HRP [2]: 0.55
Net Relative Intensity at 62.5 pg B-HRP [2]: 44.09
Net Relative Intensity at 250 pg B-HRP [2]: 75.58

Compound: c1ccc2c(c1)Nc1ccccc1S2 [Azine Poison 1a, phenothiazine]
Background RI at 0 pg of B-HRP [2]: 7.74 and 6.15 and 6.01 and 7.24
Relative Intensity at 250 pg of B-HRP [2]: 180.38 and 209.39 and 165.28

Relative Intensity 1 minute [1, 6]: 747,888
Relative Intensity 5 minutes [1, 6]: 707,432
Relative Intensity 30 minutes [1, 6]: 598,082
Relative Intensity 1 hours [1, 6]: 492,016
Relative Intensity 2 hours [1, 6]: 274,888
Relative Intensity 24 hours [1, 6]: 0
Relative Intensity 2 pg SA-HRP [1, 7]: 0
Relative Intensity 5 pg SA-HRP [1, 7]: 106,776
Relative Intensity 20 pg SA-HRP [1, 7]: 598,072
Compound: O=C1C=CC(=Nc2ccc(O)cc2)C=C1 [Phenolic Enhancer 3, Phenolindophenol/indophenol]

Compound: [O-][O+]1c2ccccc2Nc2ccccc21 [phenoxazine-5-oxide]
poisoning of the chemiluminescent system [3]: does not poison the system
